# Results as given in patent US10561638B2, “Methods for treating dependence” (Biotie Therapies, Inc., priority 2007, dated 2020).
# How the values were obtained:
# [1] = test system: tissue norepinephrine and dopamine levels; assay: Tissue catecholamines in SHRs after single dose (dose response, time course); format: in vivo, spontaneously hypertensive rats; details: for dose with significant change in dopamine/norepinephrine ratio: 6 h after single oral dose
# Description: Significant changes in these parameters were also observed in the left ventricle of male Sprague-Dawley rats 6 hours after the second of two i.v. injections (15 mg/kg) given 12 hours apart. The 24 hour time course of tissue catecholamines was studied in male SHRs following oral administration of either 10 or 30 mg/kg, respectively. The increase in the dopamine/norepinephrine ratio was significant at 1 hour, and was long lasting (12 hours at 10 mg/kg, mesenteric artery, and 24 hours at 30 mg/kg, left ventricle).
# In SHRs there were significant changes in the dopamine/norepinephrine ratio in the mesenteric artery at doses of 0.3 mg/kg, in the left ventricle at 3.0 mg/kg, and in the cerebral cortex at 10 mg/kg. […] In a second dose-response study in SHRs, three doses were administered 12 hours apart at either 3.0, 10, 30, or 100 mg/kg, and tissue was harvested six hours after the third dose. Nepicastat caused a significant dose dependent decrease in norepinephrine (10 mg/kg) and increase in dopamine (3.0 mg/kg) and the dopamine/norepinephrine ratio (3.0 mg/kg) in the left ventricle and mesenteric artery. The effects of nepicastat on dopamine and norepinephrine concentrations, and the dopamine/norepinephrine ratio in the cerebral cortex were significant only at 30 and 100 mg/kg.
# The purpose of this study was to determine the 24 hours time course of the effects of nepicastat (10 mg/kg) on dopamine and norepinephrine levels in the mesenteric artery following a single oral dose in spontaneously hypertensive rats. Catecholamine levels were measured at 1, 2, 4, 6, 8, 12, 16, and 24 hours after a single oral administration of either nepicastat (10 mg/kg) or vehicle (dH2O; 10 ml/kg).
# Sixteen-17 week old, male spontaneous hypertensive rats (SHRs) weighing 300-400 grams were allowed food and water ad libitum. Animals were weighed and randomly assigned, the afternoon before the study, to one of the following treatment groups (n=9 per group): a single oral administration of nepicastat at 10 mg/kg or a single oral administration of vehicle (10 ml/kg) to be sacrificed at 1, 2, 4, 6, 8, 12, 16, or 24 hours.
# Animals were dosed […] the morning of sacrifice. At 1, 2, 4, 6, 8, 12, 16 and 24 hours following administration, 9 treated animals and 9 vehicle animals were anesthetized with halothane, decapitated, and the left ventricle and mesenteric artery were rapidly harvested and weighed. The mesenteric artery was put in 0.5 ml of 0.4M perchloric acid in a centrifuge tube and the left ventricle put into an empty cryotube. Both tissues were immediately frozen in liquid nitrogen and stored at −70° C. Mesenteric artery catecholamine levels were determined using HPLC with electrochemical detection. At the time of decapitation, plasma samples were taken by draining blood from the carcass into a tube containing heparin, and centrifuging at 4° C.
# Each treatment group was compared to vehicle at each time point. A two way analysis of variance (ANOVA) with effects TRT, HARVEST and their interaction was performed. A one way ANOVA with factor TRT was performed for each harvest time. Pairwise analyses between treated and vehicle animals, at each time point, were carried out using Fisher's LSD strategy to control the experiment-wise error rate. […] Levels were marginally (0.05<p<0.1) lower at the 6 hour time point.
# [2] = test system: blood pressure responses to norepinephrine, isoproterenol and acetylcholine; assay: Responses to autonomic agents in anesthetized, instrumented dogs; format: in vivo, beagle dogs; details: single intraduodenal dose of 60 mg/kg
# Description: Beagle dogs were administered single intraduodenal doses of 0 (vehicle) or 60 mg/kg of nepicastat through an intraduodenal cannula. The vehicle-control group consisted of 1 male and 1 female, and the nepicastat-treatment group consisted of 2 males and 2 females. Each animal was surgically instrumented while anesthetized with isoflurane gas. Before dosing with test formulation, the average blood pressure responses to intravenous doses of autonomic agents, norepinephrine (3 μg/kg), isoproterenol (0.3 μg/kg), and acetylcholine (10 μg/kg), were evaluated. A single bolus dose of test formulation was then administered to each animal and the blood pressure responses to the autonomic agents were evaluated approximately 1, 2, and 3 hours after dosing. At the completion of the experiment, each dog was euthanatized and removed from the study. […]
# Systolic, diastolic, and mean aortic blood pressures were evaluated just before administration (baseline) and at the time of peak response to each agent (maximum change from baseline). Systolic, diastolic, and mean aortic blood pressures, and blood pH, PCO2, and PO2 were evaluated before dosing and approximately 50, 110, and 170 minutes after dosing with test formulation. […]
smiles,measurement,setting,value
"Cl.NCc1c[nH]c(=S)n1[C@H]1CCc2c(F)cc(F)cc2C1 [nepicastat, (S)-5-Aminomethyl-1-(5,7-difluoro-1,2,3,4-tetrahydronaphth-2-yl)-2,3-dihydro-2-thioxo-1H-imidazole hydrochloride]",duration of increase in dopamine/norepinephrine ratio,"[1]; 10 mg/kg, mesenteric artery",12 h
same,duration of increase in dopamine/norepinephrine ratio,"[1]; 30 mg/kg, left ventricle",24 h
same,time at which increase in dopamine/norepinephrine ratio was significant,[1]; 10 or 30 mg/kg oral,1 h
same,doses inhibiting DBH,[1]; cerebral cortex of rats,60 to 100 mg/kg/day
same,dose with significant change in dopamine/norepinephrine ratio,[1]; cerebral cortex,10 mg/kg
same,oral dose with significant evidence for DBH inhibition,"[1]; heart and mesenteric artery, rats",6 mg/kg/day
same,doses inhibiting DBH,[1]; left ventricle and mesenteric artery of rats,1 to 6 mg/kg/day
same,dose with significant change in dopamine/norepinephrine ratio,[1]; left ventricle,3.0 mg/kg
same,dopamine/norepinephrine ratio vs vehicle,"[1]; mesenteric artery, 10 mg/kg po, 1, 2, 4, 6 and 12 hour",significantly (p<0.05) greater
same,dopamine levels vs vehicle,"[1]; mesenteric artery, 10 mg/kg po, 2 and 6 hr",significantly (p<0.05) higher
same,"norepinephrine, dopamine and ratio","[1]; mesenteric artery, 10 mg/kg po, 16 and 24 h harvest",no changes in any of the three parameters
same,dose with significant change in dopamine/norepinephrine ratio,[1]; mesenteric artery,0.3 mg/kg
same,norepinephrine vs vehicle,"[1]; mesenteric artery, single 10 mg/kg po, 1-24 h",significantly (p<0.05) lower than vehicle only at the 4 hr time point
same,predose vs postdose blood pressure responses to autonomic agents,[2],No treatment-related differences
